Where two headings read alike, the source gives them in different places.
Test system: HCV replicon
Experiment: HCV replicon replication assay (NPTII ELISA)
Type: cell-based, Hepatitis C virus (Huh-7 cells)
Conditions: Hepatitis C virus, Huh-7, 72 h, inhibition of HCV replicon replication in Huh-7 HCV replicon-containing cells, three days incubation, NPT level by ELISA
How it was run: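 Huh-7 cells carrying a Bartenschlager NPTII (neo) HCV replicon, treated 3 days at 37 °C with compound, generally 6 concentrations from 10 to 0.03 micromolar, in equal DMSO across wells. NPTII level, proportional to replication, read by capture ELISA on methanol:acetone-fixed cells; interferon alpha positive control; toxicity scored visually or by MTS.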

Structure (SMILES)	EC50 (read-out: EC50) [nM]	EC50 [nM]
CC(C)COc1ccc(N(C(N)=O)c2nc(-c3ccccn3)cs2)cc1C(F)(F)F [Compound 150, 1-(4-isobutoxy-3-(trifluoromethyl)phenyl)-1-(4-(pyridin-2-yl)thiazol-2-yl)urea]	< 1000	
CCCCCCCCOc1ccc(N(C(C)=O)c2nc(-c3cccnc3)c(F)s2)cc1C(F)(F)F [Compound 177, N-(5-fluoro-4-(pyridin-3-yl)thiazol-2-yl)-N-(4-(octyloxy)-3-(trifluoromethyl)phenyl)acetamide]	< 1000	
CCCCCOc1ccc(N(C(=O)C2CCCCC2)c2nc(-c3cccnc3)cs2)cc1C(F)(F)F [Compound 32, N-(4-(pentyloxy)-3-(trifluoromethyl)phenyl)-N-(4-(pyridin-3-yl)thiazol-2-yl)cyclohexanecarboxamide]	< 1000	
CCCCCCOc1ccc(N(C(N)=O)c2nc(-c3ccc4c(c3)NC(=O)CO4)cs2)cc1 [Compound 121, 1-(4-(hexyloxy)phenyl)-1-(4-(3-oxo-3,4-dihydro-2H-benzo[b][1,4]oxazin-6-yl)thiazol-2-yl)urea]	1000 to 10000	
CCCCCCCOc1ccc(N(C(=O)C2CCCCC2)c2nc(-c3ccccn3)cs2)cc1 [Compound 95, N-(4-(heptyloxy)phenyl)-N-(4-(pyridin-2-yl)thiazol-2-yl)cyclohexanecarboxamide]	1000 to 10000	
CCCCCCCCOc1ccc(N(COC(=O)C(C)(C)C)c2nc(-c3cccnc3)c(F)s2)cc1C(F)(F)F [Compound 192, ((5-fluoro-4-(pyridin-3-yl)thiazol-2-yl)(4-(octyloxy)-3-(trifluoromethyl)phenyl)amino)methyl pivalate]	< 1000	
CCCCCOc1ccc(N(C)c2nc(C(=O)Nc3ccc(C#N)cc3)cs2)cc1C(F)(F)F [Compound 5, N-(4-cyanophenyl)-2-(methyl(4-(pentyloxy)-3-(trifluoromethyl)phenyl)amino)thiazole-4-carboxamide]	> 10000	
CCCCCOc1ccc(N(C)c2nc(-c3cccnc3)cs2)cc1C(F)(F)F [Compound 2, N-methyl-N-(4-(pentyloxy)-3-(trifluoromethyl)phenyl)-4-(pyridin-3-yl)thiazol-2-amine]	< 1000	
CCCCCOc1ccc(N(C(=O)OC)c2nc(-c3cccnc3)cs2)cc1C(F)(F)F [Compound 31, methyl 4-(pentyloxy)-3-(trifluoromethyl)phenyl(4-(pyridin-3-yl)thiazol-2-yl)carbamate]	< 1000	
CCCCCOc1ccc(N(C(N)=O)c2nc(-c3cccnc3)cs2)cc1C(F)(F)F [Compound 49, 1-(4-(pentyloxy)-3-(trifluoromethyl)phenyl)-1-(4-(pyridin-3-yl)thiazol-2-yl)urea]	< 1000	
CCCCCOc1ccc(N(C(=O)C(OC(C)=O)c2ccccc2)c2nc(-c3cccnc3)cs2)cc1C(F)(F)F (stereo not drawn) [Compound 65, 2-oxo-2-((4-(pentyloxy)-3-(trifluoromethyl)phenyl)(4-(pyridin-3-yl)thiazol-2-yl)amino)-1-phenylethyl acetate]	< 1000	
CCCCCOc1ccc(N(C(=O)CC(=O)OC)c2nc(-c3ccc(F)cc3)cs2)cc1C(F)(F)F [Compound 43, methyl 3-((4-(4-fluorophenyl)thiazol-2-yl)(4-(pentyloxy)-3-(trifluoromethyl)phenyl)amino)-3-oxopropanoate]	< 1000	
CCCCCCCOc1ccc(N(C(=O)c2cc(C)on2)c2nc(-c3ccc(Cl)s3)cs2)cc1 [Compound 91, N-(4-(5-chlorothiophen-2-yl)thiazol-2-yl)-N-(4-(heptyloxy)phenyl)-5-methylisoxazole-3-carboxamide]	< 1000	
CCCCCOc1ccc(N(C(=O)C2CC2)c2nc(-c3ccc(C(=O)N(C)C)cn3)cs2)cc1C(F)(F)F [Compound 13, N,N-dimethyl-6-(2-(N-(4-(pentyloxy)-3-(trifluoromethyl)phenyl)cyclopropane-carboxamido)thiazol-4-yl)nicotinamide]	> 10000	
CC(C)COc1ccc(N(C(N)=O)c2nc(-c3ccc(F)c(F)c3)cs2)cc1C(F)(F)F [Compound 126, 1-(4-(3,4-difluorophenyl)thiazol-2-yl)-1-(4-isobutoxy-3-(trifluoromethyl)phenyl)urea]	< 1000	
CCCCCOc1ccc(N(C(=O)CO)c2nc(-c3cccnc3)cs2)cc1C(F)(F)F [Compound 62, 2-hydroxy-N-(4-(pentyloxy)-3-(trifluoromethyl)phenyl)-N-(4-(pyridin-3-yl)thiazol-2-yl)acetamide]	< 1000	
CCCCCOc1ccc(N(C(=O)C(=O)OC)c2nc(-c3ccncc3)cs2)cc1C(F)(F)F [Compound 35, methyl 2-oxo-2-((4-(pentyloxy)-3-(trifluoromethyl)phenyl)(4-(pyridin-4-yl)thiazol-2-yl)amino)acetate]	< 1000	
CCCCCCc1ccc(N(C(N)=O)c2nc(-c3cccnc3)c(F)s2)cc1C(F)(F)F [Compound 155, 1-(5-fluoro-4-(pyridin-3-yl)thiazol-2-yl)-1-(4-hexyl-3-(trifluoromethyl)phenyl)urea]	< 1000	
CCCCOc1ccc(N(C(N)=O)c2nc(-c3cccnc3)cs2)cc1C(F)(F)F [Compound 136, 1-(4-butoxy-3-(trifluoromethyl)phenyl)-1-(4-(pyridin-3-yl)thiazol-2-yl)urea]	< 1000	
CCCCCCCCOc1ccc(N(C(=O)COCCOCCOC)c2nc(-c3cccnc3)c(F)s2)cc1C(F)(F)F [Compound 172, N-(5-fluoro-4-(pyridin-3-yl)thiazol-2-yl)-2-(2-(2-methoxyethoxy)ethoxy)-N-(4-(octyloxy)-3-(trifluoromethyl)phenyl)acetamide]	< 1000	
CCCCCOc1ccc(N(C(=O)C2CC2)c2nc(CN(C)C)cs2)cc1C(F)(F)F [Compound 22, N-(4-((dimethylamino)methyl)thiazol-2-yl)-N-(4-(pentyloxy)-3-(trifluoromethyl)phenyl)cyclopropane-carboxamide]	1000 to 10000	
CCCCCCCCOc1ccc(N(C(=O)OCCOCCOCCOCCOC)c2nc(-c3cccnc3)c(F)s2)cc1C(F)(F)F [Compound 171, 2,5,8,11-tetraoxatridecan-13-yl 5-fluoro-4-(pyridin-3-yl)thiazol-2-yl(4-(octyloxy)-3-(trifluoromethyl)phenyl)carbamate]	< 1000	
CCCCCN(C)c1ccc(N(C(N)=O)c2nc(-c3ccc(F)c(F)c3)cs2)cc1C(F)(F)F [Compound 107]		< 1000
CCCCCN(C)c1ccc(N(C(=O)c2cc(C)on2)c2nc(-c3cccnc3)cs2)cc1C(F)(F)F [Compound 52, 5-methyl-N-(4-(methyl(pentyl)amino)-3-(trifluoromethyl)phenyl)-N-(4-(pyridin-3-yl)thiazol-2-yl)isoxazole-3-carboxamide]	< 1000	
CCCCCOc1ccc(N(C(=O)C2CC2)c2nc(-c3ccc(CN(C)C)nc3)cs2)cc1C(F)(F)F [Compound 17, N-(4-(6-((dimethylamino)methyl)pyridin-3-yl)thiazol-2-yl)-N-(4-(pentyloxy)-3-(trifluoromethyl)phenyl)cyclopropane-carboxamide]	1000 to 10000	
CCCCCOc1ccc(N(C(=O)C(N)=O)c2nc(-c3cccnc3)cs2)cc1C(F)(F)F [Compound 153, N1-(4-(pentyloxy)-3-(trifluoromethyl)phenyl)-N1-(4-(pyridin-3-yl)thiazol-2-yl)oxalamide]	< 1000	
NC(=O)N(c1ccc(OCC2CCCCC2)c(F)c1)c1nc(-c2ccc(F)c(F)c2)cs1 [Compound 120, 1-(4-(cyclohexylmethoxy)-3-fluorophenyl)-1-(4-(3,4-difluorophenyl)thiazol-2-yl)urea]	< 1000	
